Tests used:
Balb/C mice [1] = test: In vivo Luc expression after tail vein injection of Luc mRNA-LNP; conditions: 5 μg Luc mRNA-LNP tail vein, 6 hours
Description: In vivo expression evaluation method: 5 μg Luc (luciferase) mRNA-LNP solution of SW-II-118, SW-120, or SW-121 were injected into the tail vein of Balb/C mice. 6 hours after the administration, the mice are injected 0.15 mg/kg of […] substrate intraperitoneally. Within 15 minutes after the injection of the substrate, the fluorescence signal intensity was tested under a small animal in vivo imaging instrument.

cells = test: Cytotoxicity, CCK-8 cell viability; assay type: cell-based; conditions: 200 ng LNP, 24 h, CCK-8, vs cells blank
Description: Evaluation method of cytotoxicity: 200 ng of LNP samples were mixed with cells and incubated for 24 h, then the viability was detected using CCK-8 cell viability detection kit. 10 μl of CCK-8 detection reagent was added to the transfected cells and the OD value was detected using a microplate reader at a detection wavelength of 450 nm. The cell viability percentage is obtained by comparing the OD value with that of the cells blank.

A20 cells = test: In vitro cell Luc expression, A20; assay type: cell-based; conditions: 100 ng Luc mRNA-LNP, 24 h
Description: In vitro cell expression evaluation method: C2C12 cells, HepG2 cells, A20 cells were cultured, and 100,000 cells per well were plated on a 96-well plate. 100 ng of LNP samples were mixed with the cells and incubated for 24 hours (n=3), and then the expression was detected using luciferase quantitative kit 24 h after administration.

Balb/C mice [2] = test: Luc expression in injection site and liver site after intramuscular administration (Example 5); assay type: in vivo; conditions: 5 μg Luc mRNA-LNP (DSPC) intramuscularly, Balb/C mice n=3, 6 h
[3] = Encapsulation efficiency (RIBOGREEN kit); assay type: physicochemical; conditions: Luc mRNA-LNP 50:10:38.5:1.5
Description: For nanoparticle compositions including an RNA, a QUANT-IT™ RIBOGREENR®RNA assay (Invitrogen Corporation Carlsbad, Calif.) can be used to evaluate the encapsulation of an RNA by the nanoparticle composition. The samples were diluted to a concentration of approximately 5 μg/mL in a TE buffer solution (10 mM Tris-HCl, 1 mM EDTA, pH 7.5). 50 μL of the diluted samples are transferred to a polystyrene 96 well plate and either 50 μL of TE buffer or 50 μL of a 2% Triton X-100 solution is added to the wells. The plate is incubated at a temperature of 37° C. for 15 minutes. The RIBOGREENR reagent is diluted 1:100 in TE buffer and 100 μL of this solution is added to each well. The fluorescence intensity can be measured using a fluorescence plate reader (Wallac Victor 1420 Multilablel Counter; Perkin Elmer, Waltham, Mass.) at an excitation wavelength of, for example, about 480 nm and an emission wavelength of, for example, about 520 nm. The fluorescence values of the reagent blank are subtracted from that of each of the samples and the percentage of free RNA is determined by dividing the fluorescence intensity of the intact sample (without addition of Triton X-100) by the fluorescence value of the disrupted sample (caused by the addition of Triton X-100).
Encapsulation efficiency detection method: LNP content and encapsulation efficiency detection were carried out according to the RIBOGREEN kit.

[4] = Particle size, PDI and zeta potential by dynamic light scattering; assay type: physicochemical; conditions: for PDI / Zeta potential: Luc mRNA-LNP 50:10:38.5:1.5; for Size: Luc mRNA-LNP, lipid:phospholipid:cholesterol:PEG-DMG 50:10:38.5:1.5
Description: A Zetasizer Nano ZS (Malvern Instruments Ltd, Malvern, Worcestershire, UK) can be used to determine the particle size, the polydispersity index (PDI) and the zeta (ζ) potential of the nanoparticle compositions in 1×PBS in determining particle size and 15 mM PBS in determining zeta (ζ) potential.
The evaluation method of particle size and zeta potential: 50 μL LNP sample was diluted with 950 μL purified water to obtain the diluted LNP sample. The sample was placed in a dynamic light scattering laser particle size analyzer (Malvern, ZS-90) for testing.

In the case of `CCCCCCCCC(CCCCCCCC)OC(=O)CCCCCCCN(CCO)CCCCCCCC(=O)OCCc1ccc(CCCCCCC)cc1` [SW-II-121], the In vivo expression (Balb/C mice [1]; phospholipid DAPC) is reported as 156336666.7 p/sec/cm^2/sr, the In vivo expression (Balb/C mice [1]; phospholipid DMPE) is reported as 78216666.7 p/sec/cm^2/sr and the In vivo expression (Balb/C mice [1]; phospholipid DOPE) is reported as 47516666.7 p/sec/cm^2/sr. The In vivo expression (Balb/C mice [1]; phospholipid DPPC) was 36323333.3 p/sec/cm^2/sr, the In vivo expression (Balb/C mice [1]; phospholipid DPPE) was 46183333.3 p/sec/cm^2/sr and the In vivo expression (Balb/C mice [1]; phospholipid DSPC) was 12494333.3 p/sec/cm^2/sr. For the same molecule, the In vivo expression (Balb/C mice [1]; phospholipid DSPE) was 19344666.7 p/sec/cm^2/sr, the “Viability (%)” value (cells; phospholipid DAPC) was 111.1% and the “Viability (%)” value (cells; phospholipid DMPE) was 108.5%. The “Viability (%)” value (cells; phospholipid DOPE) was 107.5%, the “Viability (%)” value (cells; phospholipid DPPC) was 109.64% and the “Viability (%)” value (cells; phospholipid DPPE) was 108.0%. The “Viability (%)” value (cells; phospholipid DSPC) was 123.3%, the “Viability (%)” value (cells; phospholipid DSPE) was 137.0% and the “A20 cell, in vitro expression” value (A20 cells; phospholipid DAPC) was 1744.5. The “A20 cell, in vitro expression” value (A20 cells; phospholipid DMPE) was 9110.5, the “A20 cell, in vitro expression” value (A20 cells; phospholipid DOPE) was 4244.5 and the “A20 cell, in vitro expression” value (A20 cells; phospholipid DPPC) was 9098. For the same molecule, the “A20 cell, in vitro expression” value (A20 cells; phospholipid DPPE) was 27832, the “A20 cell, in vitro expression” value (A20 cells; phospholipid DSPC) was 8006.5 and the “A20 cell, in vitro expression” value (A20 cells; phospholipid DSPE) was 508.5. For the same molecule, the “Luc expression in injection site, I.M. injection site, 6 h (ratio relative to SW-II-134-3 set as 1)” value (Balb/C mice [2]) was 1.440, the “Luc expression in liver site, Liver site upon I.M., 6 h (ratio relative to SW-II-137-1 set as 1)” value (Balb/C mice [2]) was 2.150 and the “Encapsulation Efficiency (EE, %)” value ([3]; phospholipid DAPC) was 76.6%. The “Encapsulation Efficiency (EE, %)” value ([3]; phospholipid DMPE) was 70.9%, the “Encapsulation Efficiency (EE, %)” value ([3]; phospholipid DOPE) was 81.5% and the “Encapsulation Efficiency (EE, %)” value ([3]; phospholipid DPPC) was 86.7%. The “Encapsulation Efficiency (EE, %)” value ([3]; phospholipid DPPE) was 84.0%, the “Encapsulation Efficiency (EE, %)” value ([3]; phospholipid DSPC) was 86.0% and the “Encapsulation Efficiency (EE, %)” value ([3]; phospholipid DSPE) was 68.5%. For the same molecule, the PDI ([4]; phospholipid DAPC) was 0.27 ± 0.01, the Zeta potential ([4]; phospholipid DAPC) was −2.21 ± 0.53 mV and the Size ([4]; phospholipid DAPC) was 96.3 ± 2.2 nm. The PDI ([4]; phospholipid DMPE) was 0.20 ± 0.03, the Zeta potential ([4]; phospholipid DMPE) was 0.01 ± 0.35 mV and the Size ([4]; phospholipid DMPE) was 139.8 ± 1.1 nm. For the same molecule, the PDI ([4]; phospholipid DOPE) was 0.17 ± 0.03, the Zeta potential ([4]; phospholipid DOPE) was 5.06 ± 0.15 mV and the Size ([4]; phospholipid DOPE) was 159.87 ± 3.7 nm. For the same molecule, the PDI ([4]; phospholipid DPPC) was 0.22 ± 0.02, the Zeta potential ([4]; phospholipid DPPC) was −1.23 ± 1.43 mV and the Size ([4]; phospholipid DPPC) was 98.7 ± 1.7 nm. For the same molecule, the PDI ([4]; phospholipid DPPE) was 0.17 ± 0.03, the Zeta potential ([4]; phospholipid DPPE) was −0.29 ± 0.31 mV and the Size ([4]; phospholipid DPPE) was 98.4 ± 2.7 nm. The PDI ([4]; phospholipid DSPC) was 0.22 ± 0.03, the Zeta potential ([4]; phospholipid DSPC) was −1.18 ± 1.18 mV and the Size ([4]; phospholipid DSPC) was 98.5 ± 1.5 nm. It also gave a PDI ([4]; phospholipid DSPE) of 0.17 ± 0.03, a Zeta potential ([4]; phospholipid DSPE) of −9.60 ± 2.10 mV and a Size ([4]; phospholipid DSPE) of 116.3 ± 0.2 nm.
